Structures can show the parent of a compound that is named as a salt.
Assays:
Histamine H3 receptor [1] = target: T1, Histamine H3 receptor (Cavia porcellus, UniProt Q9JI35); test: Histamine H3 radioligand binding assay, guinea pig cortex ([3H]-R-α-methylhistamine); conditions: guinea pig cortex membranes, competition with 1 nM [3H]-R-α-methylhistamine; for Ki: read-out: pKi (Guinea pig cortex) (converted)
Method in brief: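 Male Dunkin Hartley guinea pig cortical membranes incubated 165 min at 21±3 °C in 20 mM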

Histamine H3 receptor [2] = target: T1, Histamine H3 receptor; test: Histamine H3 functional assay, guinea pig ileum (ileal longitudinal muscle, myenteric plexus); design: species or system tissue; conditions: antagonist affinity from rightward shift of R-(α)-methylhistamine E/[A] curves (Schild), typical variance ±0.15 log units; for Kb: read-out: pKb (Guinea pig ileum) (converted)
Method in brief: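 Longitudinal muscle–myenteric plexus strips from male Dunkin-Hartley guinea pigs (250-300 g), Krebs-Henseleit buffer at 37±1° C, field-stimulated at 0.1 Hz, 0.5 msec, supramaximal voltage; isometric recording. Cumulative R-(α)-methylhistamine E/[A] curves as % inhibition of twitch height; antagonist affinity by Schild analysis of rightward shift.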

T1 sequence (Q9JI35 whole entry): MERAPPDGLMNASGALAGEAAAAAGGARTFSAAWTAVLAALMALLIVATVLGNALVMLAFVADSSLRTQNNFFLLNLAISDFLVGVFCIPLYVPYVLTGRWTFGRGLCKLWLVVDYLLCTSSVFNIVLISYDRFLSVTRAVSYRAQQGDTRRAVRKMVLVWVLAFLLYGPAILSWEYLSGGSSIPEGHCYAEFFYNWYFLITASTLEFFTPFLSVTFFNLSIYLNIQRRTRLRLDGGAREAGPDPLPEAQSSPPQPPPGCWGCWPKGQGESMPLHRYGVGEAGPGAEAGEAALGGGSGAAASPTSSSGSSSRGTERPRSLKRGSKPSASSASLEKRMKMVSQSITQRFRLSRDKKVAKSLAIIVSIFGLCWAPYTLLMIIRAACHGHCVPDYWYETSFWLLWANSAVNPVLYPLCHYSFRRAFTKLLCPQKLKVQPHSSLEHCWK

Row | Structure (SMILES) | Ki (Histamine H3 receptor [1]) | Kb (Histamine H3 receptor [2]) | pKi (Guinea pig cortex) (Histamine H3 receptor [1]) | pKb (Guinea pig ileum) (Histamine H3 receptor [2]) | pKi (Guinea pig cortex) (Histamine H3 receptor [1]; bis-hydrochloride)
1 | Cl.Cl.N=C(NCCCCCN1CCCCCC1)NCC12CC3CC(CC(C3)C1)C2 [Example 61, N-Adamantan-1-yl-methyl-N′-(5-azepan-1-yl-pentyl)-guanidine bis-hydrochloride] | – | – | 8.1 | 7.8 | –
2 | CN1C[C@H](O)C[C@@H]1CCCNS(=O)(=O)NCc1ccc(Cl)cc1 [Example 132, N-(4-Chlorobenzyl)-N′-(3-(4R-hydroxy-1-methyl-pyrrolidin-2S-yl)-propyl)-sulfamide] | – | – | 6.9 | 5.8 | –
3 | Cl.Cl.N=C(NCCCCCN1CCCC1)NCC1CCCCCC1 [Example 46, N-Cycloheptyl-methyl-N′(5-pyrrolidin-1-yl-pentyl)-guanidine bis-hydrochloride] | – | – | 8.5 | 7.7 | –
4 | CN1CCCC1CCCCNS(=O)(=O)NCc1ccc(Cl)cc1 (stereo not drawn) [Example 116, N-(4-Chlorobenzyl)-N′-(4-(1-methyl-pyrrolidin-2S-yl)-butyl)-sulfamide] | 126 nM | 200 nM | – | – | –
5 | Cl.Cl.N=C(NCCCCCN1CCCC1)NCC12CC3CC(CC(C3)C1)C2 [Example 30, N-Adamantan-1-yl-methyl-N′-(5-pyrrolidin-1-yl-pentyl)-guanidine bis-hydrochloride] | – | – | 8.5 | 7.9 | –
6 | O=S(=O)(CCCCN1CCCC1)c1ccc2ccccc2c1 [Example 88] | 631 nM | 1260 nM | – | – | –
7 | CN1CCC[C@H]1CCCNS(=O)(=O)NCc1ccc(Cl)cc1 [Example 107, N-(4-Chlorobenzyl)-N′-(3-(1-methyl-pyrrolidin-2S-yl)-propyl)-sulfamide] | 100 nM | 158 nM | – | – | –
8 | CN1CCC[C@H]1CCCNS(=O)(=O)Cc1ccc(Cl)cc1 [Example 99] | 200 nM | 316 nM | – | – | –
9 | O=S(=O)(NCCCCN1CCCC1)c1ccc2ccccc2c1 [Example 83, N-(4-Pyrrolidin-1-yl-butyl)-2-naphthalenesulfonamide] | 251 nM | 631 nM | – | – | –
10 | CN1CCC[C@H]1CCCN(C)S(=O)(=O)NCc1ccc(Cl)cc1 [Example 122, N-(4-Chlorobenzyl)-N′-methyl-N′-(3-(1-methyl-pyrrolidin-2S-yl)propyl)-sulfamide] | 126 nM | 316 nM | – | – | –
11 | CN1CCC[C@H]1CCCNS(=O)(=O)CCCc1ccc(Cl)cc1 [Example 103, N-(3-(1-Methyl-pyrrolidin-2S-yl)-propyl)-3-(4-chlorophenyl)-propanesulfonamide] | 126 nM | 316 nM | – | – | –
12 | CN1CCCC1CCCCS(=O)(=O)NCc1ccc(Cl)cc1 (stereo not drawn) [Example 136, N-(4-Chlorobenzyl)-4-(1-methyl-pyrrolidin-2S-yl)-butanesulfonamide] | 316 nM | 316 nM | – | – | –
13 | CN1CCC[C@H]1CCCNS(=O)(=O)Cc1ccc(Br)cc1 [Example 101, N-(3-(1-Methyl-pyrrolidin-2S-yl)-propyl)-(4-bromophenyl)-methanesulfonamide] | 251 nM | 1000 nM | – | – | –
14 | CN1CCC[C@H]1CCCNS(=O)(=O)N(C)Cc1ccc(Cl)cc1 [Example 121, N-(4-Chlorobenzyl)-N-methyl-N′-(3-(1-methyl-pyrrolidin-2S-yl)-propyl)-sulfamide] | 316 nM | 1000 nM | – | – | –
15 | Cc1ccccc1CN(CCCCCCN1CCCC1)C(=N)N [Example 76, N-(2-Methylbenzyl)-N-(6-pyrrolidin-1-yl-hexyl)-guanidine bis-hydrochloride] | 1.58 nM | 7.94 nM | – | – | –
16 | Cl.Cl.N=C(NCCCCCCN1CCCC1)NCC12CC3CC(CC(C3)C1)C2 [Example 31, N-Adamantan-1-yl-methyl-N′-(6-pyrrolidin-1-yl-hexyl)-guanidine bis-hydrochloride] | – | – | – | 8.0 | 8.4
17 | CN1CCC[C@H]1CCNS(=O)(=O)NCc1ccc(Cl)cc1 [Example 115, N-(4-Chlorobenyl)-N′-(2-(1-methyl-pyrrolidin-2S-yl)-ethyl)-sulfamide] | 501 nM | 398 nM | – | – | –
18 | Cl.Cl.N=C(NCCCN1CCCC1)NCc1ccc2ccccc2c1 [Example 4, N-Naphthalen-2-yl-methyl-N′-(3-pyrrolidin-1-yl-propyl)-guanidine bis-hydrochloride] | – | – | 7.1 | 6.5 | –

Further lines, with some results ahead:

Row | Ki (Histamine H3 receptor [1]) | Kb (Histamine H3 receptor [2]) | Structure (SMILES) | pKi (Guinea pig cortex) (Histamine H3 receptor [1]) | pKb (Guinea pig ileum) (Histamine H3 receptor [2]) | pKi (Guinea pig cortex) (Histamine H3 receptor [1]; bis-hydrochloride)
19 | 2.51 nM | 39.8 nM | CC(C)CCNC(=N)NCCCCCN1CCCC1 [Example 66] | – | – | –
20 | 5.01 nM | 50.1 nM | N=C(NCCCCN1CCCC1)NCc1ccc(Cl)cc1 [Example 17] | – | – | –
21 | 63.1 nM | 631 nM | CNC(=NCCCN1CCCC1)NCc1ccc(Cl)cc1 [Example 64, N-(4-Chlorobenzyl)-N′-methyl-N″-(3-pyrrolidin-1-yl-propyl)-guanidine] | – | – | –
22 | 79.4 nM | 200 nM | N=C(NCCCCc1ccccc1)NCCCN1CCCC1 [Example 22, N-(4-Phenylbutyl)-N′-(3-pyrrolidin-1-yl-propyl)-guanidine bis-hydrochloride] | – | – | –
23 | 7.94 nM | 79.4 nM | N=C(NCCCCCN1CCCC1)NCCc1ccc(Cl)cc1 [Example 25, N-(2-(4-Chlorophenyl)ethyl)-N′-(5-pyrrolidin-1-yl-pentyl)-guanidine bis-hydrochloride] | – | – | –
24 | 7.94 nM | 79.4 nM | N=C(NCCCCCN1CCCC1)NCc1ccc2ccccc2c1 [Example 53, N-(Naphthalen-2-yl-methyl)-N′-(5-pyrrolidin-1-yl-pentyl)guanidine bis-hydrochloride] | – | – | –
25 | 50.1 nM | 158 nM | N=C(NCCCc1ccc(Cl)cc1)NCCCN1CCCC1 [Example 21, N-(3-(4-Chlorophenyl)propyl)-N′-(3-pyrrolidin-1-yl-propyl)-guanidine bis-hydrochloride] | – | – | –
26 | 39.8 nM | 158 nM | N=C(NCCCN1CCCC1)NCCc1ccc(Br)cc1 [Example 26, N-(2-(4-Bromophenyl)ethyl)-N′-(3-pyrrolidin-1-yl-propyl)-guanidine bis-hydrochloride] | – | – | –
27 | 3.98 nM | 50.1 nM | N=C(NCCCCCN1CCCC1)NCc1ccccc1 [Example 47, N-Benzyl-N′-(5-pyrrolidin-1-yl-pentyl)-guanidine bis-hydrochloride] | – | – | –
28 | 6.31 nM | 31.6 nM | C[C@H](NC(=N)NCCCCCN1CCCC1)c1ccccc1 [Example 49, N-(1(S)-Phenyl-ethyl)-N′-(5-pyrrolidin-1-yl-pentyl)-guanidine bis-hydrochloride] | – | – | –
29 | 200 nM | 501 nM | O=S(=O)(NCCCCN1CCCC1)NCc1ccc(Cl)cc1 [Example 139, N-(4-Chlorobenzyl)-N′-(4-pyrrolidin-1-yl-butyl)-sulfamide] | – | – | –
30 | 50.1 nM | 1000 nM | N=C(NCCCN1CCCC1)Nc1ccc(Cl)cc1 [Example 19, N-(4-Chlorophenyl)-N′-(3-pyrrolidin-1-yl-propyl)-guanidine] | – | – | –
31 | 3.98 nM | 31.6 nM | C[C@H](NC(=N)NCCCCN1CCCC1)C1CCCCC1 [Example 45, N-(1(S)-Cyclohexyl-ethyl)-N′(4-pyrrolidin-1-yl-butyl)-guanidine bis-hydrochloride] | – | – | –
32 | 3.16 nM | 25.1 nM | Cc1ccccc1CNC(=N)NCCCCCN1CCCC1 [Example 48, N-(2-Methylbenzyl)-N′-(5-pyrrolidin-1-yl-pentyl)-guanidine bis-hydrochloride] | – | – | –
33 | 631 nM | 3980 nM | N=C(NCCN1CCCC1)NCc1ccc(Cl)cc1 [Example 16, N-(4-Chlorobenzyl)-N′-(2-pyrrolidin-1-yl-ethyl)-guanidine bis-hydrochloride] | – | – | –
34 | 316 nM | 316 nM | N=C(NCCCN1CCCC1)NCCCC12CC3CC(CC(C3)C1)C2 [Example 34, N-(3-Adamantan-1-yl-propyl)-N′-(3-pyrrolidin-1-yl-propyl)-guanidine bis-hydrochloride] | – | – | –
35 | 20 nM | 63.1 nM | N=C(NCCCCN1CCCC1)NCc1ccc(C2CCCCC2)cc1 [Example 56, N-(4-Cyclohexylbenzyl)-N′-(4-pyrrolidin-1-yl-butyl)-guanidine bis-hydrochloride] | – | – | –
36 | 39.8 nM | 398 nM | COc1ccc(CNC(=N)NCCCN2CCCC2)cc1Br [Example 7, N-(3-Bromo-4-methoxy-benzyl)-N′-(3-pyrrolidin-1-yl-propyl)-guanidine bis-hydrochloride] | – | – | –
37 | 7.94 nM | 316 nM | O=S(=O)(NCCCCN1CCCC1)N(CCCCN1CCCC1)Cc1ccc(Cl)cc1 [Example 140, N-(4-Chlorobenzyl)-N N′-bis(4-pyrrolidin-1-yl-butyl)-sulfamide] | – | – | –
38 | 1.58 nM | 25.1 nM | C[C@@H](NC(=N)NCCCCN1CCCC1)C1CCCCC1 [Example 44, N-(1(R)-Cyclohexyl-ethyl)-N′-(4-pyrrolidin-1-yl-butyl)-guanidine bis-hydrochloride] | – | – | –
39 | 501 nM | 2510 nM | CN1CCC[C@H]1CCCNS(=O)(=O)NCC1CCCCC1 [Example 110, N-Cyclohexyl-methyl-N′-(3-(1-methyl-pyrrolidin-2S-yl)-propyl)-sulfamide] | – | – | –
40 | 5.01 nM | 3.16 nM | N=C(N)N(CCCCCCN1CCCCC1)Cc1ccc(Cl)cc1 [Example 72, N-(4-Chlorobenzyl)-N-(6-piperidin-1-yl-hexyl)-guanidine bis-hydrochloride] | – | – | –
41 | 6.31 nM | 631 nM | N=C(NCCCCN1CCCC1)NCCc1ccc(Cl)cc1 [Example 24, N-(2-(4-Chlorophenyl)ethyl)-N′-(4-pyrrolidin-1-yl-butyl)-guanidine bis-hydrochloride] | – | – | –
